# Experimental data published in publication PMC10419975, “A Novel Betulinic Acid Analogue: Synthesis, Solubility, Antitumor Activity and Pharmacokinetic Study in Rats” (Molecules, 2023).
# Like-named read-outs stand apart in the source and are kept apart here.
# Key:
# [1] = Equilibrium solubility in different solvents (saturation shake-flask, HPLC); format: physicochemical; details: 20 °C, thermodynamic from solid
# Experimental: (§1) The solubility was recorded at 20 °C in the present study. The solubility under equilibrium conditions was determined using the saturation shake-flask method with minor modifications. Briefly, an excess amount of SBE was added slowly to 1 mL of different solvents including methanol, ethanol, ethyl acetate, n-butanol, n-octanol, acetonitrile, petroleum ether as well as water. The mixture was then in crimp-sealed vials and was stirred vigorously at 20 °C for about 48 h. After that, the mixture was left to stand for an additional 24 h to reach equilibration, and then followed by centrifuging at 13,000 rpm for at least 10 min. 50 µL of the supernatant was transferred into a new tube, and evaporated to dryness under a slow nitrogen stream. The residue was then stored at −20 °C for further use or reconstituted in 1 mL of methanol. For the aqueous solution, 500 µL of the supernatant was transferred to the new tube, and the residue was reconstituted in 100 µL of methanol after dryness. After being centrifuged at 13,000 rpm for 10 min, a 20 μL aliquot was injected into the HPLC systems.
# [2] = tested on: 2774 (ovarian cancer cell line); assay: In vitro cytotoxic activity, MTT assay; format: cell-based; details: 2774, MTT, 72 h
# Experimental: (§2) The in vitro cytotoxic activities of SBE were evaluated on six different tumor cell lines including MPC2 (pancreatic cancer cell line), HT29 (colon cancer cell line), DU145 (prostate cancer cell line), NCI-H520 (lung cancer cell line), Hela (cervical cancer cell line) and 2774 (ovarian cancer cell line) using MTT assay. Cells were cultured in RPMI DMEM medium (containing 100 IU/mL G-penicillin, 100 µg/mL streptomycin and supplemented with 10% fetal calf serum) at 37 °C with 5% of CO2 in a CO2 incubator. In the MTT experiments, the cells were initially seeded in a 96-well plate with 0.1–0.2 mL (about 15 × 10^3 cells) of culture medium per well and allowed to attach overnight (about 24 h). Once attached, the cell confluence in each well reached approximately 50–60% when the drugs were added. Then the medium was replaced with fresh medium containing SBE or BA at different concentrations in four replicates. After incubating in the CO2 incubator for 3 days (about 72 h), 30 µL of MTT solution (3 mg/mL in culture medium) was added to each well and incubated for an additional 4 h. The medium was then aspirated and 150 µL of DMSO was added to each well to dissolve the formazan crystals thoroughly. The absorbance (OD value) was quantitated at 490 nm using a microplate reader (ELX800, Biotek, America). The relative growth inhibition rate (%) was calculated as (1 − mean absorbance of the sample/mean absorbance of the control) × 100%, considering the optical density of the control as 100%.
# [3] = tested on: DU145 (prostate cancer cell line); assay: In vitro cytotoxic activity, MTT assay; format: cell-based; details: Homo sapiens, DU-145, 72 h
# Experimental: as §2
# [4] = tested on: HT29 (colon cancer cell line); assay: In vitro cytotoxic activity, MTT assay; format: cell-based; details: Homo sapiens, HT-29, 72 h
# Experimental: as §2
# [5] = tested on: Hela (cervical cancer cell line); assay: In vitro cytotoxic activity, MTT assay; format: cell-based; details: Homo sapiens, 72 h
# Experimental: as §2
# [6] = tested on: MPC2 (pancreatic cancer cell line); assay: In vitro cytotoxic activity, MTT assay; format: cell-based; details: 72 h
# Experimental: as §2
# [7] = tested on: NCI-H520 (lung cancer cell line); assay: In vitro cytotoxic activity, MTT assay; format: cell-based; details: Homo sapiens, 72 h
# Experimental: as §2
# [8] = tested on: Lewis lung carcinoma (LLC) tumor; assay: Lewis lung carcinoma (LLC) subcutaneous xenograft growth model; format: in vivo, C57BL/6J mice; details: 0.4 mmol/kg i.p. every other day; for tumor growth inhibition rate (IR) / effect on the body weight of the mice / mean tumor volume: 18 days; for effect on the body weight of the mice: vs vehicle control; for mean tumor volume: placebo 3522.72 ± 2446.63 mm^3; for tumor weight reduced by: day 18, vs vehicle control; for mean tumor weight: day 18, vehicle control 2.86 ± 1.16 g
# Experimental: The antitumor activities in vivo assay were performed as described previously with minor modifications. C57BL/6J mice (20 ± 2 g) for the xenograft animal model were purchased from the Laboratory Animal Center of Jilin University (Jilin, China). A formulation of SBE (48 mg/mL) or BA (40 mg/mL) was prepared by mixing SBE or BA with ethanol/tween 80/normal saline (v/v/v = 1/1/18). Each of the mice was inoculated subcutaneously on the back with about 1 × 10^6 Lewis lung carcinoma (LLC) tumor cells (purchased from Nanjing KeyGen Biotech. Inc., China) to obtain the xenograft animal model. Then the mice were divided into three experimental groups (n = 4) randomly on the next day after implantation. BA (200 mg/kg, i.e., 0.4 mmol/kg), SBE (240 mg/kg, i.e., 0.4 mmol/kg) or placebo was injected intraperitoneally (i.p.) every other day. The changes in tumor length, width and body weight were also observed and recorded every other day. Xenograft tumor volume (TV) and growth inhibition rate (IR) were calculated as the following equation [25]:TV = 0.5 × length × width^2; IR = (Vcontrol − Vtreat)/Vcontrol × 100%.
# Mice were continually observed for 18 days, and then sacrificed on day 18 via euthanasia. The implanted tumors then were excised and weighed for subsequent analysis. All the animal handling procedures above were according to standard operating procedures approved by the institutional animal care and use committee at Northeast Forestry University.
# Bad/Bcl-xL ratio = assay: Western blot analysis in Hela cells; format: cell-based; details: 50 μmol/L, 24 h
# Experimental: (§3) Expression of the proteins including cleaved-cas9, Bad and Bcl-xL in Hela cells treated with BA or SBE were determined by western blot analysis. Briefly, HeLa cells (1.7 × 10^5) were seeded in a 6-well microplate and allowed to attach overnight (about 24 h). The cells were then treated with BA or SBE at a concentration of 50 μmol/L for another 24 h. After that, cells were collected and lysed in PIRA buffer (Beyotime Biotech, Beijing, China) with PhosSTOP phosphatase inhibitor cocktail tablets (Roche Diagnostics, Mannheim, Baden-Württemberg, Germany). Bradford method was used to quantify the protein concentration. The samples were denatured at 100 °C for 5 min using a block heater. Then 30 μg of the denatured samples were separated by SDS-PAGE and allowed to transfer to a PVDF membrane. After the blots were blocked and washed, they were incubated overnight at 4 °C with specific primary antibodies against cleaved-cas9, Bad, Bcl-xL and β-actin. The blotting membrane was then washed three times using TBS-tween (Tris buffer saline with 1% Tween-20, pH 7.5), and incubated with IgG secondary antibodies for another 1 h at room temperature (or incubated overnight at 4 °C), followed by the same washing procedures above. After that, the immunoreactive proteins were developed with the ECL system. Imagelab software was used to quantify proteins and β-actin was used as a loading control. The changed fold was represented by the protein expression ratio [(target protein/the β-actin)/(the control group/the β-actin)].
# Bcl-xL = assay: Western blot analysis in Hela cells; format: cell-based; details: 50 μmol/L, 24 h
# Experimental: as §3
# cleaved-cas9 (caspase 9) = assay: Western blot analysis in Hela cells; format: cell-based; details: 50 μmol/L, 24 h
# Experimental: as §3
# [9] = Pharmacokinetics of BE after i.g. dosing (previous study); format: in vivo, rat; details: BE i.g. 500 mg/kg vs SBE i.g. 200 mg/kg
# [10] = parameters: method as in PMID 24095874; details: i.g. dose of 500 mg/kg; cited from earlier work
# [11] = Equilibrium solubility in phosphate buffer at different pH; format: physicochemical; details: 20 °C, aqueous buffer, thermodynamic from solid
# Experimental: as §1
# Equilibrium solubility and apparent oil-water partition coefficient of SBE in pH 5.0, 6.0, 6.5, 7.0, 7.4 and 8.0 phosphate buffer were also determined. Equilibrium solubility was determined by the method described above. The apparent oil-water partition coefficient (P) was calculated through the mass concentration ratio of the oil phase and water phase after balancing SBE distribution using the following equations: P = C1V1/(C0V0 − C1V1), where C0 and C1 are the initial and final concentrations of SBE in n-octanol before and after equilibration, respectively; V0 is the volume of n-octanol (water-saturated), V1 is the final oil volume after equilibration.
# [12] = Apparent oil/water partition coefficient (water-saturated n-octanol vs phosphate buffer); format: physicochemical; details: for logP: water-saturated n-octanol/phosphate buffer
# Experimental: Equilibrium solubility was determined by the method described above. The apparent oil-water partition coefficient (P) was calculated through the mass concentration ratio of the oil phase and water phase after balancing SBE distribution using the following equations: P = C1V1/(C0V0 − C1V1), where C0 and C1 are the initial and final concentrations of SBE in n-octanol before and after equilibration, respectively; V0 is the volume of n-octanol (water-saturated), V1 is the final oil volume after equilibration.
# Bad = assay: Western blot analysis in Hela cells; format: cell-based; details: 50 μmol/L, 24 h, vs control cells
# Experimental: as §3
compound,measurement,setting,value
"C=C(C)[C@@H]1CC[C@]2(C(=O)O)CC[C@]3(C)[C@H](CC[C@@H]4[C@@]5(C)CC[C@H](O)C(C)(C)[C@@H]5CC[C@]43C)[C@@H]12 [BA, 3β-hydroxy-lup-20(29)-en-28-oic acid, reference compound]",solubility thermodynamic at 48 h,"[1]; acetonitrile, organic solvent or mixture",250 ± 20 µg/mL
same,solubility thermodynamic at 48 h,"[1]; ethanol, organic solvent or mixture",4130 ± 20 µg/mL
same,solubility thermodynamic at 48 h,"[1]; ethyl acetate, organic solvent or mixture",4470 ± 240 µg/mL
same,solubility thermodynamic at 48 h,"[1]; methanol, organic solvent or mixture",1920 ± 440 µg/mL
same,solubility thermodynamic at 48 h,"[1]; n-butanol, organic solvent or mixture",4140 ± 100 µg/mL
same,solubility thermodynamic at 48 h,"[1]; n-octanol, organic solvent or mixture",6230 ± 680 µg/mL
same,solubility thermodynamic at 48 h,"[1]; petroleum ether, organic solvent or mixture",27 ± 10 µg/mL
same,solubility thermodynamic at 48 h,[1]; water,36 ± 10 µg/mL
same,IC50,[2],39.5 ± 2.19 µM
same,IC50,[3],23.3 ± 2.2 µM
same,IC50,[4],32.7 ± 0.62 µM
same,IC50,[5],25.9 ± 1.87 µM
same,IC50,[6],38.6 ± 2.91 µM
same,IC50,[7],19.6 ± 2.44 µM
same,tumor growth inhibition rate (IR),[8],~61.93%
same,effect on the body weight of the mice,[8],no obvious effect
same,mean tumor volume,[8],1340.91 ± 1186.99 mm^3
same,tumor weight reduced by,[8],~68.89%
same,mean tumor weight,[8],0.89 ± 0.53 g
same,ratio of Bad/Bcl-xL,Bad/Bcl-xL ratio,notably up-regulated
same,Bcl-xL levels,Bcl-xL,no significant difference
same,cleavage products of caspase 9,cleaved-cas9 (caspase 9),clearly increased
"C=C(C)[C@@H]1CC[C@]2(CO)CC[C@]3(C)[C@H](CC[C@@H]4[C@@]5(C)CC[C@H](O)C(C)(C)[C@@H]5CC[C@]43C)[C@@H]12 [BE, lup-20(29)-en-3β, 28-diol]",AUC0−∞ of BE relative to that of SBE,[9],about 5%
same,AUC0−∞,[10],1408.3 ± 183.7 ng·h/mL
"C=C(C)[C@@H]1CC[C@]2(COC(=O)CCC(=O)O)CC[C@]3(C)C(CCC4[C@@]5(C)CC[C@H](O)C(C)(C)C5CC[C@]43C)C12 (some centres unmarked) [SBE, 28-O-succinyl betulin]",solubility thermodynamic at 48 h,[11]; phosphate buffer pH 5,2.79 µg/mL
same,solubility thermodynamic at 48 h,[11]; phosphate buffer pH 6,2.66 µg/mL
same,solubility thermodynamic at 48 h,[11]; phosphate buffer pH 6.5,2.46 µg/mL
same,solubility thermodynamic at 48 h,[11]; phosphate buffer pH 7,10.9 µg/mL
same,solubility thermodynamic at 48 h,[11]; phosphate buffer pH 7.4,29.8 µg/mL
same,solubility thermodynamic at 48 h,[11]; phosphate buffer pH 8,15.3 µg/mL
same,Apparent Oil/Water Partition Coefficient (P),[12]; n-octanol/phosphate buffer pH 5,9.68 ± 0.13
same,Apparent Oil/Water Partition Coefficient (P),[12]; n-octanol/phosphate buffer pH 6,9.57 ± 0.30
same,Apparent Oil/Water Partition Coefficient (P),[12]; n-octanol/phosphate buffer pH 6.5,9.75 ± 0.21
same,Apparent Oil/Water Partition Coefficient (P),[12]; n-octanol/phosphate buffer pH 7,8.63 ± 0.19
same,Apparent Oil/Water Partition Coefficient (P),[12]; n-octanol/phosphate buffer pH 7.4,8.14 ± 0.27
same,Apparent Oil/Water Partition Coefficient (P),[12]; n-octanol/phosphate buffer pH 8,9.53 ± 0.23
same,logP,"[12]; pH 5, n-octanol/PBS, over pH 5–8, read-out: LogP values (all)",0.91 to 0.99
same,logP,"[12]; pH 5, n-octanol/phosphate buffer pH 5, read-out: LogP",0.99 ± 0.01
same,logP,"[12]; pH 6, n-octanol/phosphate buffer pH 6, read-out: LogP",0.98 ± 0.01
same,logP,"[12]; pH 6.5, n-octanol/phosphate buffer pH 6.5, read-out: LogP",0.99 ± 0.01
same,logP,"[12]; pH 7, n-octanol/phosphate buffer pH 7, read-out: LogP",0.94 ± 0.01
same,logP,"[12]; pH 7.4, n-octanol/phosphate buffer pH 7.4, read-out: LogP",0.91 ± 0.01
same,logP,"[12]; pH 8, n-octanol/phosphate buffer pH 8, read-out: LogP",0.98 ± 0.01
same,tumor growth inhibition rate (IR),[8],about 88.69%
same,effect on the body weight of the mice,[8],no obvious effect
same,mean tumor volume,[8],398.17 ± 384.06 mm^3
same,tumor weight reduced by,[8],about 85.31%
same,mean tumor weight,[8],0.42 ± 0.40 g
same,expression level of Bad,Bad,significantly higher
same,Bcl-xL levels,Bcl-xL,no significant difference
